From patent publication US9635879B2, “Sweetener” (Tate & Lyle Ingredients Americas LLC, priority 2013, dated 2017)
Marks after values point to notes of the source that are not given here.

Legend:
[1] = Round table sensory evaluation with test panelists: sucrose equivalent value (SEV) against sucrose reference samples; type: in vivo; settings: for Sweetness (mean SEV), two-way ANOVA, grouping (Duncan): second Sweetness line, superscripts = Duncan grouping, level of significance 5%
Experimental: Round table evaluations were performed with test panelists. Equal sweet 10 SEV concentrations in neutral pH water were made for allulose, fructose and sucralose, as well as a composition comprising allulose, fructose and sucralose. The components of the test compositions are described in the below tables. The mixed compositions were calculated using the Beidler mixture equation for the sweeteners. The Beidler mixture equation for sweeteners is as follows: […]
The concentration of each component in the mixture in ppm is divided by SEV (c/R) and is plotted against concentration, c. The slope of the linear regression is the maximum SEV (Rmax). The y-intercept of the linear regression multiplied by Rmax is the half-maximal sweetness concentration, 1/K. Rmax and 1/K are the two parameters used in the Beidler equation.
The equal-molar mixture was tested against reference samples for the panelists to determine SEV values. […] The test samples were served in 2 ounce (approximately 60 ml) soufflé cups coded with 3-digit codes at room temperature. A two minute wait period between samples was enforced. Water and unsalted crackers was available for the panelists to clear their palates before and during testing. EyeQuestion was used for ballot development and recording of results. Results were collected in EyeQuestion for calculating approximate SEV level of each test sample. The test products analyzed in this experiment are described below in Table 1.

[2] = times as sweet as sucrose; cited from earlier work
[3] = neutral pH water, room temperature, samples made to equal sweet 10 SEV, references 4-14% sucrose

SMILES	Mean sucrose equivalent value (SEV) (Mean 1) [1, 3]	Sweetness (mean SEV), two-way ANOVA, grouping (Duncan) [1]	Sweetness (mean SEV), two-way ANOVA, level of significance (Duncan) ([1]; first Sweetness line, superscripts = level of significance (Duncan))	Median sucrose equivalent value (SEV) (Median 1) [1, 3]	Sweetness relative to sucrose [2]
O=C(CO)C(O)C(O)C(O)CO (stereo not drawn) [Allulose, allulose]	10.14	10.14^b-c			
O=C(CO)[C@@H](O)[C@H](O)[C@H](O)CO [Fructose, fructose]	10.14	10.14^b-c			
OC[C@H]1O[C@H](O[C@]2(CCl)O[C@H](CCl)[C@@H](O)[C@@H]2O)[C@H](O)[C@@H](O)[C@H]1Cl [Sucralose, sucralose]	9.286	9.29^c	9.29	10	approximately 600 times
